Laboratory results as given in US7674613B2, “Live bacterium preparation containing lactic acid bacterium as active ingredient and food containing lactic acid bacterium” (Frente International Co., Ltd., priority 2002, dated 2010).

Key:
[1] = system: Streptococcus mutans MT 8148 strain; test: Test Example 4: number of viable S. mutans with oligosaccharides and sugar alcohols, with or without L. salivarius TI 2711; format: cell-based; conditions: 5% addition, aerobic 37° C. 24 hours
Method: (§1) 5% each of xylitol, erythritol and sorbitol as sugar alcohols, and fructo-oligosaccharide and kestose as oligosaccharides were each added to a liquid medium consisting of GAM bouillon (Nissui) as a base medium and containing 0.7% glucose and 3% sucrose, and each medium was inoculated with 1×10^7 CFU/ml of the Streptococcus mutans MT 8148 strain. Then, aerobic culture was performed at 37° C. for 24 hours.
(§2) On the other hand, 1×10^7 CFU/ml of the Streptococcus mutans MT 8148 strain was inoculated to the aforementioned medium containing 5% of each sugar alcohol or oligosaccharide, and 1×10^7 CFU/ml of the Lactobacillus salivarius TI 2711 strain was further inoculated to the medium. Then, aerobic culture was similarly performed at 37° C. for 24 hours. After completion of the culture, the cell numbers of Streptococcus mutans MT 8148 strain and amounts of insoluble glucan were determined (according to the methods described in Test Example 1) for the both types of culture.

[2] = system: Streptococcus mutans MT 8148 strain; test: Test Example 4: insoluble glucan production by S. mutans with oligosaccharides and sugar alcohols, with or without L. salivarius TI 2711; format: cell-based
Method: as §1, §2

[3] = With inoculation of L. salivarius TI 2711 1×10^7 CFU/ml
[4] = Without inoculation of L. salivarius, control base medium 4.0 × 10^5

SMILES | Number of viable cells of S. mutans (CFU/ml) [1, 3] | Number of viable cells of S. mutans (CFU/ml) [1, 4] | inhibition of the production of insoluble glucan ([2]; erythritol alone, 5% addition) | inhibition of the production of insoluble glucan ([2]; mixed culture inoculated with Lactobacillus salivarius TI 2711 strain, amount without inoculation taken as 100%)
OC[C@@H](O)[C@@H](O)CO [Erythritol, erythritol] | 1.0 × 10^4 CFU/ml | 1.0 × 10^5 CFU/ml | about 60% | 90%
OC[C@H]1O[C@@](CO)(OC[C@@]2(O[C@H]3O[C@H](CO)[C@@H](O)[C@H](O)[C@H]3O)O[C@H](CO)[C@@H](O)[C@@H]2O)[C@@H](O)[C@@H]1O [Kestose, kestose] | 2.0 × 10^5 CFU/ml | 5.0 × 10^5 CFU/ml | – | –
OC[C@@H](O)[C@@H](O)[C@H](O)[C@@H](O)CO [Sorbitol, sorbitol] | 3.0 × 10^5 CFU/ml | 4.0 × 10^5 CFU/ml | – | –
OC[C@@H](O)[C@H](O)[C@@H](O)CO [Xylitol, xylitol] | 5.0 × 10^5 CFU/ml | 4.0 × 10^5 CFU/ml | – | –
